Source: ChEMBL document CHEMBL1153972, “Solution studies on the complex of 4'-epiadriamycin-d-(CGATCG)2 followed by time-resolved fluorescence measurement, diffusion ordered spectroscopy and restrained molecular dynamics simulations” (Bioorg Med Chem, 2009)
Activity calls are given as the source filed them.

Columns and labels:
Format in all cases: nucleic-acid assay
Nucleic Acid [1] = experiment: Binding affinity to DNA d-(CGATCG)2 at drug to DNA ratio of 2:1 by time resolved fluorescence measurements
Nucleic Acid [2] = experiment: Binding affinity to DNA d-(CGATCG)2 by NMR study
Nucleic Acid [3] = experiment: Binding affinity to DNA d-(CGATCG)2 at drug to DNA ratio of 2:1 by 2D NOESY experiment
Nucleic Acid [4] = experiment: Binding affinity to DNA d-(CGATCG)2 assessed as rate of diffusion by diffusion ordered spectroscopy study

Measured: Activity

COc1cccc2c1C(=O)c1c(O)c3c(c(O)c1C2=O)C[C@@](O)(C(=O)CO)C[C@@H]3O[C@H]1C[C@H](N)[C@@H](O)[C@H](C)O1
active: all assays above
